Columns and labels:
[1] = system: AMARE: Amaranthus retroflexus; test: Post-emergence herbicidal efficacy at 80 g/ha, AMARE; format: in vivo; settings: visual rating about 3 weeks after treatment vs untreated controls
How it was run: (§1)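 Post-emergence spray, one-leaf stage (2–3 wk after sowing), sandy loam, greenhouse; WP/EC in water + 0.5% additive, 600 l/ha. Visual % activity vs untreated controls at ~3 wk; 100% = plants dead, 0% = like control.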

VERPE: Veronica persica [2] = test: Pre-emergence herbicide efficacy at 80 g/ha, VERPE; format: in vivo; settings: scored visually after about 3 weeks
Excerpt: (§2) Seeds of monocotyledonous and dicotyledonous weed plants and crop plants were placed in plastic or organic planting pots and covered with soil. The compounds of the invention, formulated in the form of wettable powders (WP) or as emulsion concentrates (EC), were then applied to the surface of the covering soil as aqueous suspension or emulsion with addition of 0.5% additive at a water application rate equivalent to 600 l/ha. After the treatment, the pots were placed in a greenhouse and kept under good growth conditions for the test plants. After about 3 weeks, the efficacy of the preparations was scored visually in comparison with untreated controls as percentages. For example, 100% activity=the plants have died, 0% activity=like control plants. Tables D1 to D12 below show the effects of selected compounds of the general formula (I) according to Table 1 on various harmful plants and an application rate corresponding to 80 g/ha, which were obtained by the experimental procedure mentioned above.

VERPE: Veronica persica [3] = test: Post-emergence herbicidal efficacy at 80 g/ha, VERPE; format: in vivo; settings: visual rating about 3 weeks after treatment vs untreated controls
How it was run: as §1

POLCO = test: Post-emergence herbicidal efficacy at 80 g/ha, POLCO; format: in vivo, Polygonum convolvulus; settings: visual rating about 3 weeks after treatment vs untreated controls
Procedure: Seeds of monocotyledonous and dicotyledonous weeds and crop plants were placed in sandy loam in plastic or organic planting pots, covered with soil and cultivated in a greenhouse under controlled growth conditions. 2 to 3 weeks after sowing, the test plants were treated at the one-leaf stage. The compounds of the invention, formulated in the form of wettable powders (WP) or as emulsion concentrates (EC), were then sprayed onto the green parts of the plants as aqueous suspension or emulsion with addition of 0.5% additive at a water application rate of 600 l/ha (converted). After the test plants had been kept in the greenhouse under optimum growth conditions for about 3 weeks, the activity of the preparations was rated visually in comparison to untreated controls. For example, 100% activity=the plants have died, 0% activity=like control plants. Tables B1 to B10 below show the effects of selected compounds of the general formula (I) according to Table 1 on various harmful plants and an application rate corresponding to 80 g/ha, which were obtained by the experimental procedure mentioned above.

[4] = system: AMARE: Amaranthus retroflexus; test: Pre-emergence herbicide efficacy at 80 g/ha, AMARE; format: in vivo; settings: scored visually after about 3 weeks
How it was run: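 Seeds are placed in pots and covered with soil, then the soil surface is treated with the formulated compound in water plus 0.5% additive (600 l/ha equivalent). Plants grow under good greenhouse conditions, and damage is rated visually as a percentage of untreated controls after roughly 3 weeks.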

STEME: Stellaria media [5] = test: Post-emergence herbicidal efficacy at 1280 g/ha, STEME; format: in vivo; settings: visual rating about 3 weeks after treatment vs untreated controls
How it was run: (§3)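 Visual damage rating was made roughly 3 weeks after treatment, relative to untreated plants, on a scale where 0% means no effect and 100% means plants died. Foliar application was at the one-leaf stage as an aqueous WP/EC spray with 0.5% additive at 600 L/ha water, on greenhouse-grown pot plants.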

POAAN: Poa annua [6] = test: Pre-emergence herbicide efficacy at 1280 g/ha, POAAN; format: in vivo; settings: visual scoring after about 3 weeks vs untreated controls
How it was run: (§4)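 Weed seeds were sown in sandy loam, covered with soil, and the soil surface was treated with the compound, formulated as wettable powder or emulsion concentrate, in water containing 0.5% additive at 600 L/ha. Plants then grew in the greenhouse for roughly 3 weeks before percentage efficacy was scored by eye against untreated controls.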

[7] = system: AMARE: Amaranthus retroflexus; test: Post-emergence herbicidal efficacy at 1280 g/ha, AMARE; format: in vivo; settings: rated visually after about 3 weeks vs untreated controls, 100% = plants have died, 0% = like control plants
How it was run: as §3

KCHSC: Kochia scoparia [8] = test: Pre-emergence herbicide efficacy at 1280 g/ha, KCHSC; format: in vivo; settings: visual scoring after about 3 weeks vs untreated controls
How it was run: as §4

VERPE: Veronica persica [9] = test: Pre-emergence herbicide efficacy at 1280 g/ha, VERPE; format: in vivo; settings: visual scoring vs untreated controls
How it was run: as §4

[10] = system: DIGSA: Digitaria sanguinalis; test: Pre-emergence herbicide efficacy at 1280 g/ha, DIGSA; format: in vivo; settings: visual scoring after about 3 weeks vs untreated controls
How it was run: as §4

[11] = system: DIGSA: Digitaria sanguinalis; test: Post-emergence herbicidal efficacy at 1280 g/ha, DIGSA; format: in vivo; settings: rated visually after about 3 weeks vs untreated controls, 100% = plants have died, 0% = like control plants
How it was run: as §3

POAAN: Poa annua [12] = test: Post-emergence herbicidal efficacy at 1280 g/ha, POAAN; format: in vivo; settings: visual rating about 3 weeks after treatment vs untreated controls
How it was run: as §3

LOLRI: Lolium rigidum = test: Post-emergence herbicidal efficacy at 1280 g/ha, LOLRI; format: in vivo; settings: visual rating about 3 weeks after treatment vs untreated controls
Procedure: (§5) Seeds of mono- and dicotyledonous weed plants were placed in plastic pots in sandy loam soil (doubly sown with in each case one species of mono- or dicotyledonous weed plants per pot), covered with soil and cultivated in a greenhouse under controlled growth conditions. 2 to 3 weeks after sowing, the test plants were treated at the one-leaf stage. The compounds of the invention, formulated in the form of wettable powders (WP) or as emulsion concentrates (EC), were applied to the green parts of the plants as aqueous suspension or emulsion with addition of 0.5% additive at a water application rate equivalent to 600 litres per hectare. After the test plants had been kept in the greenhouse under optimum growth conditions for about 3 weeks, the activity of the preparations was rated visually in comparison to untreated controls. For example, 100% activity=the plants have died, 0% activity=like control plants. Tables A1 to A12 below show the effects of selected compounds of the general formula (I) according to Table 1 on various harmful plants and at an application rate corresponding to 1280 g/ha, which were obtained by the trial procedure specified above.

STEME: Stellaria media [13] = test: Pre-emergence herbicide efficacy at 1280 g/ha, STEME; format: in vivo; settings: visual scoring vs untreated controls
How it was run: as §4

[14] = system: ECHCG: Echinochloa crus-galli; test: Post-emergence herbicidal efficacy at 1280 g/ha, ECHCG; format: in vivo; settings: rated visually after about 3 weeks vs untreated controls, 100% = plants have died, 0% = like control plants
How it was run: as §3

VERPE: Veronica persica [15] = test: Post-emergence herbicidal efficacy at 1280 g/ha, VERPE; format: in vivo; settings: visual rating about 3 weeks after treatment vs untreated controls
How it was run: as §3

[16] = system: MATIN: Matricaria inodora; test: Pre-emergence herbicide efficacy at 1280 g/ha, MATIN; format: in vivo; settings: visual scoring after about 3 weeks vs untreated controls
How it was run: as §4

[17] = system: AMARE: Amaranthus retroflexus; test: Pre-emergence herbicide efficacy at 1280 g/ha, AMARE; format: in vivo; settings: visual scoring after about 3 weeks vs untreated controls
How it was run: as §4

[18] = system: ABUTH: Abutilon theophrasti; test: Pre-emergence herbicide efficacy at 1280 g/ha, ABUTH; format: in vivo; settings: visual scoring after about 3 weeks vs untreated controls
How it was run: as §4

SETVI: Setaria viridis [19] = test: Pre-emergence herbicide efficacy at 1280 g/ha, SETVI; format: in vivo; settings: visual scoring vs untreated controls
How it was run: as §4

[20] = system: ECHCG: Echinochloa crus-galli; test: Pre-emergence herbicide efficacy at 1280 g/ha, ECHCG; format: in vivo; settings: visual scoring after about 3 weeks vs untreated controls
How it was run: as §4

[21] = system: ALOMY: Alopecurus myosuroides; test: Post-emergence herbicidal efficacy at 1280 g/ha, ALOMY; format: in vivo; settings: rated visually after about 3 weeks vs untreated controls, 100% = plants have died, 0% = like control plants
Procedure: as §5

KCHSC: Kochia scoparia [22] = test: Post-emergence herbicidal efficacy at 1280 g/ha, KCHSC; format: in vivo; settings: visual rating about 3 weeks after treatment vs untreated controls
How it was run: as §3

[23] = system: ABUTH: Abutilon theophrasti; test: Post-emergence herbicidal efficacy at 1280 g/ha, ABUTH; format: in vivo; settings: rated visually after about 3 weeks vs untreated controls, 100% = plants have died, 0% = like control plants
How it was run: as §3

SETVI: Setaria viridis [24] = test: Post-emergence herbicidal efficacy at 1280 g/ha, SETVI; format: in vivo; settings: visual rating about 3 weeks after treatment vs untreated controls
How it was run: as §3

KCHSC: Kochia scoparia [25] = test: Pre-emergence herbicide efficacy at 80 g/ha, KCHSC; format: in vivo; settings: scored visually after about 3 weeks
Excerpt: as §2

[26] = system: ALOMY: Alopecurus myosuroides; test: Pre-emergence herbicide efficacy at 1280 g/ha, ALOMY; format: in vivo; settings: visual scoring after about 3 weeks vs untreated controls
Excerpt: Seeds of mono- and dicotyledonous weed plants were placed in plastic pots in sandy loam soil (doubly sown with one species each of mono- or dicotyledonous weed plants per pot) and covered with soil. The compounds of the invention, formulated in the form of wettable powders (WP) or as emulsion concentrates (EC), were then applied to the surface of the covering soil as aqueous suspension or emulsion with addition of 0.5% additive at a water application rate of 600 litres per hectare (converted). After the treatment, the pots were placed in a greenhouse and kept under good growth conditions for the test plants. After about 3 weeks, the efficacy of the preparations was scored visually in comparison with untreated controls as percentages. For example, 100% activity=the plants have died, 0% activity=like control plants. Tables C1 to C12 below show the effects of selected compounds of the general formula (I) according to Table 1 on various harmful plants and at an application rate corresponding to 1280 g/ha, which were obtained by the trial procedure specified above.

SMILES | Pre-emergence efficacy against AMARE in % [4] [%] | Post-emergence efficacy against STEME (STEME: Stellaria media [5]) [%] | Pre-emergence efficacy against POAAN (POAAN: Poa annua [6]) [%] | Post-emergence efficacy at 1280 g/ha against AMARE in % [7] [%] | Pre-emergence efficacy against KCHSC (KCHSC: Kochia scoparia [8]) [%] | Pre-emergence efficacy against VERPE in % (VERPE: Veronica persica [9]) [%] | Pre-emergence efficacy against DIGSA [10] [%] | Post-emergence efficacy at 1280 g/ha against DIGSA in % [11] [%] | Post-emergence efficacy against POAAN (POAAN: Poa annua [12]) [%] | Post-emergence efficacy against LOLRI (LOLRI: Lolium rigidum) [%] | Pre-emergence efficacy against STEME in % (STEME: Stellaria media [13]) [%] | Post-emergence efficacy at 1280 g/ha against ECHCG in % [14] [%] | Post-emergence efficacy against VERPE (VERPE: Veronica persica [15]) [%] | Pre-emergence efficacy against AMARE [17] [%] | Pre-emergence efficacy against ABUTH [18] [%] | Pre-emergence efficacy against SETVI in % (SETVI: Setaria viridis [19]) [%] | Post-emergence efficacy at 1280 g/ha against ALOMY in % [21] [%] | Post-emergence efficacy against KCHSC (KCHSC: Kochia scoparia [22]) [%] | Post-emergence efficacy at 1280 g/ha against ABUTH in % [23] [%] | Post-emergence efficacy against SETVI (SETVI: Setaria viridis [24]) [%] | other results
O=S(=O)(CCC(F)(F)F)Oc1c(F)cccc1Cc1ncc(Cl)cn1 [Example 1-16] | 100 | – | – | – | – | – | – | – | – | – | – | – | – | – | – | – | – | – | – | – | Post-emergence efficacy against AMARE [1]: 100%; Pre-emergence efficacy against VERPE in % (VERPE: Veronica persica [2]): 90%; Post-emergence efficacy against VERPE (VERPE: Veronica persica [3]): 90%; Post-emergence efficacy against POLCO (POLCO): 80%
Fc1ccc(Oc2c(F)cccc2Cc2ncc(Cl)cn2)cc1 [Example 1-35, 5-Chloro-2-[3-fluoro-2-(4-fluorophenoxy)benzyl]pyrimidine] | – | 100 | 90 | 100 | 100 | 100 | 90 | 90 | 90 | 90 | 100 | 100 | 100 | 100 | 90 | 90 | 90 | 100 | 100 | 90 | Pre-emergence efficacy against MATIN [16]: 90%; Pre-emergence efficacy against ECHCG [20]: 90%
Clc1cnc(Cc2ccccc2Oc2ncc(Cl)cn2)nc1 [Example 1-50] | 90 | – | – | – | – | – | – | – | – | – | – | – | – | – | – | – | – | – | – | – | Pre-emergence efficacy against KCHSC in % (KCHSC: Kochia scoparia [25]): 90%
Cc1cccc(Oc2ncc(Cl)cc2F)c1Cc1ncc(Cl)cn1 [Example 1-66] | – | 100 | 100 | 100 | 100 | 100 | 100 | 100 | 100 | 90 | 100 | 100 | 100 | 100 | 100 | 100 | 90 | 100 | 100 | 100 | Pre-emergence efficacy against ECHCG [20]: 100%; Pre-emergence efficacy against ALOMY [26]: 90%
Fc1cc(Cl)cnc1Cc1ccccc1SCCC(F)(F)F [Example 1-110] | – | 100 | 90 | 100 | – | – | – | – | 100 | 90 | 100 | – | 100 | 100 | 90 | – | – | 90 | 90 | – | –
Fc1cc(Cl)cnc1Cc1ccccc1-n1cc(C(F)(F)F)cn1 [Example 1-130] | – | 100 | 90 | 100 | – | 90 | – | – | 100 | – | – | 90 | 100 | 100 | 100 | 90 | 90 | 100 | 100 | 90 | –

From US20250221410A1, “SUBSTITUTED 2-C-AZINES AND SALTS THEREOF, AND USE THEREOF AS HERBICIDAL ACTIVE SUBSTANCES” (BAYER AKTIENGESELLSCHAFT, priority 2022, published 2025)
